Read-outs that look alike come from different tables or passages of the source. One block for each compound: values may come before it.
Assays:
P-gp [1] = molecular target: T1, P-gp (Homo sapiens, UniProt P08183); assay: P-gp inhibition: bidirectional transport of digoxin across Caco-2 cells
MATE1 = molecular target: T2, MATE1 (Homo sapiens, UniProt Q96FL8); conditions: pH 8.5
T2 sequence (Q96FL8 1-570): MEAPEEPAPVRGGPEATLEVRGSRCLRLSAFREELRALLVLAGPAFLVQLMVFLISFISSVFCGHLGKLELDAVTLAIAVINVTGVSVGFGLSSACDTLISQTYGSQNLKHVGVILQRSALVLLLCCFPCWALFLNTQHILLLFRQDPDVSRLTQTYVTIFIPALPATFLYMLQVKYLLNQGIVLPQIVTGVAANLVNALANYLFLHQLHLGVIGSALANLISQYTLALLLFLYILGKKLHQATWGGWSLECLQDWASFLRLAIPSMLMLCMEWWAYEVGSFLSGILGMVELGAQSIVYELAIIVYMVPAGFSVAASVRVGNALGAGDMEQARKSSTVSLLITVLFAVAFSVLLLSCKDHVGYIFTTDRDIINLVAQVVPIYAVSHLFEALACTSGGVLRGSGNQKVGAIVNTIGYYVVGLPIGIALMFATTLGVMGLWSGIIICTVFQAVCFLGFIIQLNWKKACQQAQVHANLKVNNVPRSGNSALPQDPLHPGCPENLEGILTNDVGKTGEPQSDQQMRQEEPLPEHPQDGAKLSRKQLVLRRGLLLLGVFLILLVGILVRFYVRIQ
Procedure: (§1) [^14C]-Metformin (1 mM) was provided as a solid and was prepared in Hank's balanced salt solution (HBSS).
(§2) Cells were plated onto standard 24-well tissue culture plates in cell culture medium 1 to 3 days before the experiment. MATE1 and MATE2-K and control cells were incubated with butyric acid (10 mM) for 24 hours before the experiment to inhibit suppression of the transporter.

MATE2-K = MATE2-K (Homo sapiens, UniProt Q86VL8); conditions: pH 8.5
Chain of MATE2-K (Q86VL8 1-566 isoform Q86VL8-3): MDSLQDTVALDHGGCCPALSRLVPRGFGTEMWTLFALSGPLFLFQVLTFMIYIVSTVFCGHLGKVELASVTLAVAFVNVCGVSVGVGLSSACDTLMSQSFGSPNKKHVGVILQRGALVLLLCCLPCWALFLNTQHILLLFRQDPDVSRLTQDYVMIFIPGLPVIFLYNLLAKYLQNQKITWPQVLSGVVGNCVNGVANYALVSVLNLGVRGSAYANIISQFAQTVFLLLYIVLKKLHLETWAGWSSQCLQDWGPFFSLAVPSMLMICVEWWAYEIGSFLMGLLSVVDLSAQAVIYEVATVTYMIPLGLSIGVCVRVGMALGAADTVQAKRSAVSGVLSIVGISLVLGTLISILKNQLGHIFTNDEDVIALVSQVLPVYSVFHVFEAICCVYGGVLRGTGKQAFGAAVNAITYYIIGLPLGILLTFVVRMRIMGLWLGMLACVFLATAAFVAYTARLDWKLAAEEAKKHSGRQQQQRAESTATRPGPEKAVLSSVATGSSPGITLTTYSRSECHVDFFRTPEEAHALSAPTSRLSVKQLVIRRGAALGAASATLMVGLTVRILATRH
Procedure: as §1, §2

BCRP = BCRP inhibition: bidirectional transport of prazosin across MDCKII BCRP and control cells; conditions: for % control: corrected efflux ratio, prazosin 1 μM
Source text: MDCKII P-gp, MDCKII BCRP and control MDCKII cells were purchased from the Netherlands Cancer Institute.

OCT1 = molecular target: T3, OCT1 (Homo sapiens, UniProt O15245); conditions: for Background corrected uptake rate / Uptake (Average ± SD), Control / Uptake (Average ± SD), OCT1: human, pH 7.4
T3 sequence (O15245 1-554): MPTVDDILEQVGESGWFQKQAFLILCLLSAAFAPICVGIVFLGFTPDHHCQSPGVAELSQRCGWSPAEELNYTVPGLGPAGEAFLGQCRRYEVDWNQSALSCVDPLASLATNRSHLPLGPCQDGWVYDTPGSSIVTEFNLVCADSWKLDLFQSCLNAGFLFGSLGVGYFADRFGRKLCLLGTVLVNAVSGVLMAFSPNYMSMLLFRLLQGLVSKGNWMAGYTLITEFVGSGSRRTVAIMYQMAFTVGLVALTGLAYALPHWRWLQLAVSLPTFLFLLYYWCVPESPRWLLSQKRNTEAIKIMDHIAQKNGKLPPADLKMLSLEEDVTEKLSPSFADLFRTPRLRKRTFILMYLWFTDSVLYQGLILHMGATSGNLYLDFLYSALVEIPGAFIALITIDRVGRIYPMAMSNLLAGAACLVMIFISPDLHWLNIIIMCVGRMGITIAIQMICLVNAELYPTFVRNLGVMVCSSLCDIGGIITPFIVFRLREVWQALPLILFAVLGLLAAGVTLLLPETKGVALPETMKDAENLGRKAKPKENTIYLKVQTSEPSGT
Procedure: as §1, §2

P-gp [2] = molecular target: T1, P-gp
[3] = cited from earlier work
[4] = cited from earlier work; remark: listed apart in the source

T1 sequence (P08183 whole entry): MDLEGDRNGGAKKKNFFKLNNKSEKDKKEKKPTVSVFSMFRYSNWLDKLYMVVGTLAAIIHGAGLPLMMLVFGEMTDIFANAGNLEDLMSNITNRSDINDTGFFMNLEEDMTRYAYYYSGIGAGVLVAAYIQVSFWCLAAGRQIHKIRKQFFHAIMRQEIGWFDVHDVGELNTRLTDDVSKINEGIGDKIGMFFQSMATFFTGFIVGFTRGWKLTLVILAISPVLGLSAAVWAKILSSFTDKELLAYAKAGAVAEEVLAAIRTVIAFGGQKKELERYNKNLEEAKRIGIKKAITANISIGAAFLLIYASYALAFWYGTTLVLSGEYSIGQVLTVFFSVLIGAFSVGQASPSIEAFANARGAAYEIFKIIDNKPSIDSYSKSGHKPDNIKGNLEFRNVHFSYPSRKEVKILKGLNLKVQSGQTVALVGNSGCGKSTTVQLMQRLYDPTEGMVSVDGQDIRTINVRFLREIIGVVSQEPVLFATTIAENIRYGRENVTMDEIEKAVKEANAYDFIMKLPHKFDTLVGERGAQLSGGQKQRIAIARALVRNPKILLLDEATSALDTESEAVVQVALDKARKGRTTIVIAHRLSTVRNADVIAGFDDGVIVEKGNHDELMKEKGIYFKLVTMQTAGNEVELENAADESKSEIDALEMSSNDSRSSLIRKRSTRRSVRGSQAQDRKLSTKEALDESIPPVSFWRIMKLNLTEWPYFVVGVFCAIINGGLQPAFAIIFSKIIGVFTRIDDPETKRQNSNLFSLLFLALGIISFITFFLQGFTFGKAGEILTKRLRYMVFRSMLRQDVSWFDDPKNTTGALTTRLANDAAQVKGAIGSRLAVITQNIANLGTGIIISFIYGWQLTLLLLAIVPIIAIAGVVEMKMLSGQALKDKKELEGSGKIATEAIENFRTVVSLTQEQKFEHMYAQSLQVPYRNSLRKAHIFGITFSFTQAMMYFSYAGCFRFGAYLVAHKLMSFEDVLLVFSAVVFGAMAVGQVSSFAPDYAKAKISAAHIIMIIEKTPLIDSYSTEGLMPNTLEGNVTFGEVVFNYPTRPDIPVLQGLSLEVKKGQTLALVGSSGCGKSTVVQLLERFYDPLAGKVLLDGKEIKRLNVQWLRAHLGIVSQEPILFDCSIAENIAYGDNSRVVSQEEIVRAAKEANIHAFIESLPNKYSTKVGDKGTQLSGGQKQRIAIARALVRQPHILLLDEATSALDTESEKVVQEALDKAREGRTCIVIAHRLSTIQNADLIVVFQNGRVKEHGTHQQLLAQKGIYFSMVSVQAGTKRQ

Papp A:B of digoxin (Average ± SD) (P-gp [1]): 9.12 ± 1.34 × 10^−6 cm/sec
Papp B:A of digoxin (Average ± SD) (P-gp [1]): 10.0 ± 2.5 × 10^−6 cm/sec
Compound: C/C=C/C[C@@H](C)C(=O)[C@H]1C(=O)N[C@@H](C(C)C)C(=O)N(C)CC(=O)N(C)[C@@H](CC(C)C)C(=O)N[C@@H](C(C)C)C(=O)N(C)[C@@H](CC(C)C)C(=O)N[C@@H](C)C(=O)N[C@H](C)C(=O)N(C)[C@@H](CC(C)C)C(=O)N(C)[C@@H](CC(C)C)C(=O)N(C)[C@@H](C(C)C)C(=O)N1C [Valspodar]

Uptake (Average ± SD), Control (MATE1; 10 μM): 5.20 ± 0.63 pmol/mg protein
Uptake (Average ± SD), MATE1 (MATE1; 10 μM): 85.2 ± 7.8 pmol/mg protein
Uptake (Average ± SD), Control (MATE2-K; 300 μM): 7.34 ± 0.20 pmol/mg protein
Uptake (Average ± SD), MATE2-K (MATE2-K; 300 μM): 32.3 ± 11.7 pmol/mg protein
Compound: CN/C(=N/CCSCc1nc[nH]c1C)NC#N [Cimetidine]

Background corrected uptake rate (MATE1; 0.1 μM): 11.7 pmol/mg/min
Uptake (Average ± SD), Control (MATE1; 0.1 μM): 4.24 ± 0.72 pmol/mg protein
Uptake (Average ± SD), MATE1 (MATE1; 0.1 μM): 62.8 ± 4.0 pmol/mg protein
Background corrected uptake rate (MATE2-K; 0.3 μM): 14.0 pmol/mg/min
Uptake (Average ± SD), Control (MATE2-K; 0.3 μM): 5.59 ± 0.88 pmol/mg protein
Uptake (Average ± SD), MATE2-K (MATE2-K; 0.3 μM): 75.6 ± 16.7 pmol/mg protein
Compound: CCc1nc(N)nc(N)c1-c1ccc(Cl)cc1 [Pyrimethamine]

Compound: Cc1cccc(C)c1OCC(=O)N[C@@H](Cc1ccccc1)[C@@H](O)C[C@H](Cc1ccccc1)NC(=O)[C@H](C(C)C)N1CCCNC1=O [Lopinavir]
% control (BCRP; inhibitor 30 μM): 0%

Compound: C=C[C@H]1C[N@@]2CC[C@H]1C[C@@H]2[C@@H](O)c1ccnc2ccc(OC)cc12 [Quinidine]
Background corrected uptake rate (OCT1; 100 μM): 1.64 pmol/mg/min

Compound: NS(=O)(=O)c1cc(Cl)c(Cl)c(S(N)(=O)=O)c1 [Dichlorphenamide, 4,5-dichloro-1,3-benzenedisulfonamide]
% control (BCRP; inhibitor 1000 μM): 60.0%
Control cells Recovery (%) A:B (BCRP; dog, MDCK, 120 min, 1000 μM): 84.7%
Control cells Recovery (%) B:A (BCRP; dog, MDCK, 120 min, 1000 μM): 77.0%
MDCKII-BCRP cells Recovery (%) A:B (BCRP; human, 120 min, 1000 μM): 93.0%
MDCKII-BCRP cells Recovery (%) B:A (BCRP; human, 120 min, 1000 μM): 83.7%
Uptake (Average ± SD), Control (MATE1; 1 μM): 6.66 ± 1.31 pmol/mg protein
Uptake (Average ± SD), MATE1 (MATE1; 1 μM): 436 ± 23 pmol/mg protein
Uptake (Average ± SD), Control (MATE1; 3 μM): 6.75 ± 1.65 pmol/mg protein
Uptake (Average ± SD), MATE1 (MATE1; 3 μM): 401 ± 7 pmol/mg protein
Uptake (Average ± SD), Control (MATE1; 10 μM): 7.43 ± 1.34 pmol/mg protein
Uptake (Average ± SD), MATE1 (MATE1; 10 μM): 406 ± 12 pmol/mg protein
Uptake (Average ± SD), Control (MATE1; 30 μM): 6.79 ± 0.89 pmol/mg protein
Uptake (Average ± SD), MATE1 (MATE1; 30 μM): 432 ± 10 pmol/mg protein
Uptake (Average ± SD), Control (MATE1; 100 μM): 7.52 ± 0.96 pmol/mg protein
Uptake (Average ± SD), MATE1 (MATE1; 100 μM): 421 ± 17 pmol/mg protein
Uptake (Average ± SD), Control (MATE1; 300 μM): 5.56 ± 0.16 pmol/mg protein
Uptake (Average ± SD), MATE1 (MATE1; 300 μM): 398 ± 17 pmol/mg protein
Uptake (Average ± SD), Control (MATE1; 1000 μM): 5.52 ± 0.21 pmol/mg protein
Uptake (Average ± SD), MATE1 (MATE1; 1000 μM): 379 ± 13 pmol/mg protein
Uptake (Average ± SD), Control (MATE2-K; 1 μM): 9.21 ± 0.93 pmol/mg protein
Uptake (Average ± SD), MATE2-K (MATE2-K; 1 μM): 149 ± 29 pmol/mg protein
Uptake (Average ± SD), Control (MATE2-K; 3 μM): 9.44 ± 2.27 pmol/mg protein
Uptake (Average ± SD), MATE2-K (MATE2-K; 3 μM): 159 ± 19 pmol/mg protein
Uptake (Average ± SD), Control (MATE2-K; 10 μM): 8.28 ± 1.46 pmol/mg protein
Uptake (Average ± SD), MATE2-K (MATE2-K; 10 μM): 113 ± 8 pmol/mg protein
Uptake (Average ± SD), Control (MATE2-K; 30 μM): 8.51 ± 1.05 pmol/mg protein
Uptake (Average ± SD), MATE2-K (MATE2-K; 30 μM): 124 ± 36 pmol/mg protein
Uptake (Average ± SD), Control (MATE2-K; 100 μM): 9.21 ± 1.52 pmol/mg protein
Uptake (Average ± SD), MATE2-K (MATE2-K; 100 μM): 137 ± 15 pmol/mg protein
Uptake (Average ± SD), Control (MATE2-K; 300 μM): 8.86 ± 0.93 pmol/mg protein
Uptake (Average ± SD), MATE2-K (MATE2-K; 300 μM): 166 ± 16 pmol/mg protein
Uptake (Average ± SD), Control (MATE2-K; 1000 μM): 5.13 ± 0.40 pmol/mg protein
Uptake (Average ± SD), MATE2-K (MATE2-K; 1000 μM): 106 ± 29 pmol/mg protein
% control (OCT1; [14C]-tetraethylammonium bromide 5 μM, inhibitor 10 μM): 90.6%
Uptake (Average ± SD), Control (OCT1; 1 μM): 4.28 ± 1.48 pmol/mg protein
Uptake (Average ± SD), OCT1 (OCT1; 1 μM): 121 ± 11 pmol/mg protein
Uptake (Average ± SD), Control (OCT1; 3 μM): 4.44 ± 1.97 pmol/mg protein
Uptake (Average ± SD), OCT1 (OCT1; 3 μM): 125 ± 5 pmol/mg protein
Uptake (Average ± SD), Control (OCT1; 10 μM): 4.28 ± 0.92 pmol/mg protein
Uptake (Average ± SD), OCT1 (OCT1; 10 μM): 111 ± 4 pmol/mg protein
Uptake (Average ± SD), Control (OCT1; 30 μM): 3.88 ± 0.48 pmol/mg protein
Uptake (Average ± SD), OCT1 (OCT1; 30 μM): 122 ± 14 pmol/mg protein
Uptake (Average ± SD), Control (OCT1; 100 μM): 4.12 ± 0.73 pmol/mg protein
Uptake (Average ± SD), OCT1 (OCT1; 100 μM): 128 ± 6 pmol/mg protein
Background corrected uptake rate (OCT1; 300 μM): 8.40 pmol/mg/min
Uptake (Average ± SD), Control (OCT1; 300 μM): 3.88 ± 1.11 pmol/mg protein
Uptake (Average ± SD), OCT1 (OCT1; 300 μM): 130 ± 10 pmol/mg protein
Background corrected uptake rate (OCT1; 1000 μM): 5.00 pmol/mg/min
Uptake (Average ± SD), Control (OCT1; 1000 μM): 2.99 ± 1.46 pmol/mg protein
Uptake (Average ± SD), OCT1 (OCT1; 1000 μM): 77.9 ± 3.0 pmol/mg protein
Papp A:B of digoxin (Average) (P-gp [2]; Caco-2): 0.337 (n = 2) × 10^−6 cm/sec
% control (P-gp [2]; human, 120 min, 3 μM): 74.0%
Solubility in dilute solutions of sodium carbonate and sodium hydroxide [3]: soluble
Storage stability [4]: at least 36 months

Reference: patent publication US20210220300A1 (Strongbridge Dublin Limited, priority 2019, published 2021)
